What was measured:
[1] = test system: ALK tyrosine kinase receptor (Homo sapiens), Q9UM73 [L1196M]; experiment: Inhibition of ALK L1196M mutant (unknown origin) assessed as residual activity at 1000 nM by KINOMEscan analysis relative to control
[2] = molecular target: Bone morphogenetic protein receptor type-1B (Homo sapiens) (UniProt O00238); experiment: Inhibition of BMPR1B (unknown origin) assessed as residual activity at 1000 nM by KINOMEscan analysis relative to control
[3] = molecular target: Mitotic checkpoint serine/threonine-protein kinase BUB1 (Homo sapiens) (UniProt O43683); experiment: Inhibition of BUB1 (unknown origin) assessed as residual activity at 1000 nM by KINOMEscan analysis relative to control
[4] = molecular target: Cyclin-dependent kinase 2 (Homo sapiens) (UniProt P24941); experiment: Inhibition of CDK2 (unknown origin) assessed as residual activity at 1000 nM by KINOMEscan analysis relative to control
[5] = molecular target: Citron Rho-interacting kinase (Homo sapiens) (UniProt O14578); experiment: Inhibition of CIT (unknown origin) assessed as residual activity at 1000 nM by KINOMEscan analysis relative to control
[6] = molecular target: Casein kinase I isoform epsilon (Homo sapiens) (UniProt P49674); experiment: Inhibition of CSNK1E (unknown origin) assessed as residual activity at 1000 nM by KINOMEscan analysis relative to control
[7] = molecular target: Death-associated protein kinase 1 (Homo sapiens) (UniProt P53355); experiment: Inhibition of DAPK1 (unknown origin) assessed as residual activity at 1000 nM by KINOMEscan analysis relative to control
[8] = molecular target: Death-associated protein kinase 2 (Homo sapiens) (UniProt Q9UIK4); experiment: Inhibition of DAPK2 (unknown origin) assessed as residual activity at 1000 nM by KINOMEscan analysis relative to control
[9] = molecular target: Dual specificity tyrosine-phosphorylation-regulated kinase 1B (Homo sapiens) (UniProt Q9Y463); experiment: Inhibition of DYRK1B (unknown origin) assessed as residual activity at 1000 nM by KINOMEscan analysis relative to control
[10] = test system: Epidermal growth factor receptor (Homo sapiens), P00533 [L861Q]; experiment: Inhibition of EGFR L861Q mutant (unknown origin) assessed as residual activity at 1000 nM by KINOMEscan analysis relative to control
[11] = molecular target: Mitogen-activated protein kinase 1 (Homo sapiens) (UniProt P28482); experiment: Inhibition of ERK2 (unknown origin) assessed as residual activity at 1000 nM by KINOMEscan analysis relative to control
[12] = molecular target: Serine/threonine-protein kinase/endoribonuclease IRE1 (Homo sapiens) (UniProt O75460); experiment: Inhibition of ERN1 (unknown origin) assessed as residual activity at 1000 nM by KINOMEscan analysis relative to control
[13] = test system: Mast/stem cell growth factor receptor Kit (Homo sapiens), P10721 [D816H]; experiment: Inhibition of KIT D816H mutant (unknown origin) assessed as residual activity at 1000 nM by KINOMEscan analysis relative to control
[14] = molecular target: Mitogen-activated protein kinase kinase kinase kinase 4 (Homo sapiens) (UniProt O95819); experiment: Inhibition of MAP4K4 (unknown origin) assessed as residual activity at 1000 nM by KINOMEscan analysis relative to control
[15] = molecular target: Mitogen-activated protein kinase kinase kinase 9 (Homo sapiens) (UniProt P80192); experiment: Inhibition of MLK1 (unknown origin) assessed as residual activity at 1000 nM by KINOMEscan analysis relative to control
[16] = molecular target: T1, Mitogen-activated protein kinase 13 (Homo sapiens) (UniProt O15264); experiment: Inhibition of p38-delta (unknown origin) assessed as residual activity at 1000 nM by KINOMEscan analysis relative to control
T1 sequence (whole entry): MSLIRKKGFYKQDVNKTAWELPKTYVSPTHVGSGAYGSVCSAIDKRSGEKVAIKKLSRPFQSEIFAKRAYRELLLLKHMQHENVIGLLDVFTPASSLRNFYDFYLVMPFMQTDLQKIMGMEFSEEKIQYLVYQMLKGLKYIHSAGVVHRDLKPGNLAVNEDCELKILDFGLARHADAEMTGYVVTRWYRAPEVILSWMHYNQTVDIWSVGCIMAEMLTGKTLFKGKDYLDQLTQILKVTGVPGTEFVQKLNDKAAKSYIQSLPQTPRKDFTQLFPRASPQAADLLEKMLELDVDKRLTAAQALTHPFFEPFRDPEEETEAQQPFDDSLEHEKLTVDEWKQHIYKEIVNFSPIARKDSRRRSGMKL

[17] = molecular target: T2, Dual serine/threonine and tyrosine protein kinase (Homo sapiens) (UniProt Q6XUX3); experiment: Inhibition of RIPK5 (unknown origin) assessed as residual activity at 1000 nM by KINOMEscan analysis relative to control
T2 sequence (whole entry): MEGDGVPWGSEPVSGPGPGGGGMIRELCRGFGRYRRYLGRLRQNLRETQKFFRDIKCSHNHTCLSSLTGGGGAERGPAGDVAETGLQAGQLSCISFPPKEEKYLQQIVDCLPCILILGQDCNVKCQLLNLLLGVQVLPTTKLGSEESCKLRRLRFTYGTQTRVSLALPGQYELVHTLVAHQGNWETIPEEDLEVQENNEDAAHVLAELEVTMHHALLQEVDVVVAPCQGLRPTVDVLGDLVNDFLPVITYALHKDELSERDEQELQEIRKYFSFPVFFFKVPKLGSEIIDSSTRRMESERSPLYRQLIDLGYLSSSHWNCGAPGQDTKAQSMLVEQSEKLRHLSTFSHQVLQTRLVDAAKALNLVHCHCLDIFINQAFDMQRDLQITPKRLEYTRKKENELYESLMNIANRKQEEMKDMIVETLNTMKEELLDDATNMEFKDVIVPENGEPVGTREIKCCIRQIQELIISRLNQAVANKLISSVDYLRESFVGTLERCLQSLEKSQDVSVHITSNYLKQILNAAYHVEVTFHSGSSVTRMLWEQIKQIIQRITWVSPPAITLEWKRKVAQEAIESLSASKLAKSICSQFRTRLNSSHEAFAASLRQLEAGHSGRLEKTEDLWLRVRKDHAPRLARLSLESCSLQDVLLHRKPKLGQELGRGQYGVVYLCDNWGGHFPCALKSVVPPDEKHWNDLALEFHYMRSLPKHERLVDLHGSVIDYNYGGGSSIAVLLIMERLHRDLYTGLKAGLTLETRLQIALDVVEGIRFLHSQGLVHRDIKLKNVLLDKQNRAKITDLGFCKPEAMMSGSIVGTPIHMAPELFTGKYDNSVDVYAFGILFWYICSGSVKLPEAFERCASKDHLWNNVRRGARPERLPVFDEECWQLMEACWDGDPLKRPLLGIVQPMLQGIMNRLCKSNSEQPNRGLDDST

[18] = molecular target: Serine/threonine-protein kinase 33 (Homo sapiens) (UniProt Q9BYT3); experiment: Inhibition of STK33 (unknown origin) assessed as residual activity at 1000 nM by KINOMEscan analysis relative to control
[19] = molecular target: Serine/threonine-protein kinase WNK1 (Homo sapiens) (UniProt Q9H4A3); experiment: Inhibition of WNK1 (unknown origin) assessed as residual activity at 1000 nM by KINOMEscan analysis relative to control

Mast/stem cell growth factor receptor Kit (Homo sapiens), P10721 [D816H], sequence (P10721 whole entry D816H): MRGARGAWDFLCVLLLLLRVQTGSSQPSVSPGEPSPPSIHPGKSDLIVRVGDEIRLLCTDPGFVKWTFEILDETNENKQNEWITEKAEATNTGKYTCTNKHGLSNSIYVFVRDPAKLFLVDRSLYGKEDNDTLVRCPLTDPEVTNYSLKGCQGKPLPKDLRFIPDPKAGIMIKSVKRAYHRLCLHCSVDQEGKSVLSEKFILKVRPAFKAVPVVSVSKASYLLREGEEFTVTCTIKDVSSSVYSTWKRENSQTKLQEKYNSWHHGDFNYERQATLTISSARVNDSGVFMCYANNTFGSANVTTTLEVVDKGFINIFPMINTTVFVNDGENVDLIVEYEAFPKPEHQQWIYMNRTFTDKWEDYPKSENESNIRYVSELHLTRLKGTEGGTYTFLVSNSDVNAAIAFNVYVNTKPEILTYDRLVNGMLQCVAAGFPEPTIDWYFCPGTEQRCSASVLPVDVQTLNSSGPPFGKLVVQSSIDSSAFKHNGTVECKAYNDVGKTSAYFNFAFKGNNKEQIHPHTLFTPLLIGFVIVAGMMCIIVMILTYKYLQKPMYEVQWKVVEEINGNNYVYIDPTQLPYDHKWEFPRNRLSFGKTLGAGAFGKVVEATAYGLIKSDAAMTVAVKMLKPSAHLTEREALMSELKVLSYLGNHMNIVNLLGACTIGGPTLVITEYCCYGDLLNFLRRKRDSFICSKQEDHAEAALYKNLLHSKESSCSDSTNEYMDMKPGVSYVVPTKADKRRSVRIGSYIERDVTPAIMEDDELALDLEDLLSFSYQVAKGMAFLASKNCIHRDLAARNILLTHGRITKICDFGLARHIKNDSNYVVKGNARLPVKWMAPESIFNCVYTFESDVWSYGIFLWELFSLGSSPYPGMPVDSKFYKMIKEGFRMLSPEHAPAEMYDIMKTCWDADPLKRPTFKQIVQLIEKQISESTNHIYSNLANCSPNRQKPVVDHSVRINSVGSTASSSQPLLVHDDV
Mitogen-activated protein kinase 1 (Homo sapiens), sequence (P28482 whole entry): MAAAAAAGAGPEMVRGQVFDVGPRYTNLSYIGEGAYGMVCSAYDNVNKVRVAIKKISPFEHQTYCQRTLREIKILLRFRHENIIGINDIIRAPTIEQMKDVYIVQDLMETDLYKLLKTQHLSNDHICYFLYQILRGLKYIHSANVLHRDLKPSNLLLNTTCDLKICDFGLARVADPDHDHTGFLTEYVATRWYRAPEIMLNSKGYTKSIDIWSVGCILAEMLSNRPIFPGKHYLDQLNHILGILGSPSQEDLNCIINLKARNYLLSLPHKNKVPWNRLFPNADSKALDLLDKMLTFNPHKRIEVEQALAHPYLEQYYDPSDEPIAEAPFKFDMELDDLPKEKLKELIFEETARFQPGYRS
ALK tyrosine kinase receptor (Homo sapiens), Q9UM73 [L1196M], sequence (Q9UM73 whole entry L1196M, looked up): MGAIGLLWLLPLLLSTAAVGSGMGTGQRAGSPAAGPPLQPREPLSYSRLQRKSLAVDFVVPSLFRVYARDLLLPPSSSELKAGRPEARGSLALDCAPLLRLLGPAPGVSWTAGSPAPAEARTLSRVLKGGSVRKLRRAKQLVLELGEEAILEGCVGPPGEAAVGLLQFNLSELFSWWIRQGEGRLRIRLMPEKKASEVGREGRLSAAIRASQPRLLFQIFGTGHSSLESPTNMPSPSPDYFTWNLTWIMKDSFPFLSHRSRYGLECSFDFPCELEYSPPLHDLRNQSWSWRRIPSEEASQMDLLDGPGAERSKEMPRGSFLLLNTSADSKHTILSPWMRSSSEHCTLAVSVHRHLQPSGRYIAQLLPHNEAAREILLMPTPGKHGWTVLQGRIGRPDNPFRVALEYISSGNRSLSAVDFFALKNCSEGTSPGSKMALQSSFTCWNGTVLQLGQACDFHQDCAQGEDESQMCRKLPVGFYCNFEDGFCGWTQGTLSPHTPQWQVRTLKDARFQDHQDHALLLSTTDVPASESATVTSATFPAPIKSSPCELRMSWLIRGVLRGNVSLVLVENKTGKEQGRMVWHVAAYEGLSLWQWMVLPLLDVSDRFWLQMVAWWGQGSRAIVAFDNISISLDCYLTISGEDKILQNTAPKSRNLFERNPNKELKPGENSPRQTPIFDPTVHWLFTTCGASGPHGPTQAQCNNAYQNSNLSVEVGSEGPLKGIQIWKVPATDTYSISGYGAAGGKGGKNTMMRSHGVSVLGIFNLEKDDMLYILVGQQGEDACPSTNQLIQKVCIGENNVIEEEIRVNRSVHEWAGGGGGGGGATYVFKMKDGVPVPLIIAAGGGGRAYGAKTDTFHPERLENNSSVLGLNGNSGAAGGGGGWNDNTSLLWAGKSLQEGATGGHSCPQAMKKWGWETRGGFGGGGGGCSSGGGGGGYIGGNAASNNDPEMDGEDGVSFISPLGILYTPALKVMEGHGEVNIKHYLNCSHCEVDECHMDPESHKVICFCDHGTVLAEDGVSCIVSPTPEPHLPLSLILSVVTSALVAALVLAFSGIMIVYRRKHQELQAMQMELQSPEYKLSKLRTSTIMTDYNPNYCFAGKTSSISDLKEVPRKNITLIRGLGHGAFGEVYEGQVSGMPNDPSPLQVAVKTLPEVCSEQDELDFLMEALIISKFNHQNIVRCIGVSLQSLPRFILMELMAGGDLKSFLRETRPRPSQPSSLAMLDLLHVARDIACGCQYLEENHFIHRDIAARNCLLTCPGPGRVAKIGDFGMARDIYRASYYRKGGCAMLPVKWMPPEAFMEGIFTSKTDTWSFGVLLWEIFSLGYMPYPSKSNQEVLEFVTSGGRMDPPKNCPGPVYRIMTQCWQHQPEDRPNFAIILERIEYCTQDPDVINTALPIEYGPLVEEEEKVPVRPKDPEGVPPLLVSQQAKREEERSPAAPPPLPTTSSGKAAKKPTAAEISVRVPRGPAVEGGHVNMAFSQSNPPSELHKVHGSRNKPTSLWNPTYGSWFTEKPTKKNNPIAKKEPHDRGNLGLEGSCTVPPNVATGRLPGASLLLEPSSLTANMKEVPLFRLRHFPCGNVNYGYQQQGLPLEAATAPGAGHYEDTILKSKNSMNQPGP
Mitotic checkpoint serine/threonine-protein kinase BUB1 (Homo sapiens), sequence (O43683 whole entry, looked up): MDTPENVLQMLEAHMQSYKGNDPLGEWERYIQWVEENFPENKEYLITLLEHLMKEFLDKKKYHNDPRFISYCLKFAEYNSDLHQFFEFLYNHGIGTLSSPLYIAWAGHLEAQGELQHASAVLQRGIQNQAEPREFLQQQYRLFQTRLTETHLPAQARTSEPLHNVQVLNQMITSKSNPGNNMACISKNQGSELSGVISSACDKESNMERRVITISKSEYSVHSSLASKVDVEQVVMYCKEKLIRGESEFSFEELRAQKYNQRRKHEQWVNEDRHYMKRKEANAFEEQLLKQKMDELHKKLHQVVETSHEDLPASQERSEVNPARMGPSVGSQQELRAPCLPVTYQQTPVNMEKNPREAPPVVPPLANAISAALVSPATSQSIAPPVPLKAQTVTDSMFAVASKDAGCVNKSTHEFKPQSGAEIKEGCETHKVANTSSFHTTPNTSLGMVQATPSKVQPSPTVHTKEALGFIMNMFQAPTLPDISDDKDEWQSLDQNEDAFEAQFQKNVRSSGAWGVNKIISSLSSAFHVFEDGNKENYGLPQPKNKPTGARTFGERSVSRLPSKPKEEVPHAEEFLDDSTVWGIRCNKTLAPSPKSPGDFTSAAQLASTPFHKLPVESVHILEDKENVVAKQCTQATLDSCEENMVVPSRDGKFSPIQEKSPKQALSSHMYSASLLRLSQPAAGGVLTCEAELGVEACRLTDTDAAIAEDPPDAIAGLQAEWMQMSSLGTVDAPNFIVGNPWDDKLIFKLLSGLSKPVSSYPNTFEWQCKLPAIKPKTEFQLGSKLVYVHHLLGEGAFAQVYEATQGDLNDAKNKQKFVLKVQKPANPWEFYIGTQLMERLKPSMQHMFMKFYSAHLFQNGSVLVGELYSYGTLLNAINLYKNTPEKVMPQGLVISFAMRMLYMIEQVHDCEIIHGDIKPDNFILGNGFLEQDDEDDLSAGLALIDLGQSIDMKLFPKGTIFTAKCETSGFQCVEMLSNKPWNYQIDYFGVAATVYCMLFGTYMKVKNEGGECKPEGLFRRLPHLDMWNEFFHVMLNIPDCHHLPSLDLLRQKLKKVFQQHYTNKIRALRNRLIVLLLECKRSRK
Death-associated protein kinase 2 (Homo sapiens), sequence (Q9UIK4 whole entry, looked up): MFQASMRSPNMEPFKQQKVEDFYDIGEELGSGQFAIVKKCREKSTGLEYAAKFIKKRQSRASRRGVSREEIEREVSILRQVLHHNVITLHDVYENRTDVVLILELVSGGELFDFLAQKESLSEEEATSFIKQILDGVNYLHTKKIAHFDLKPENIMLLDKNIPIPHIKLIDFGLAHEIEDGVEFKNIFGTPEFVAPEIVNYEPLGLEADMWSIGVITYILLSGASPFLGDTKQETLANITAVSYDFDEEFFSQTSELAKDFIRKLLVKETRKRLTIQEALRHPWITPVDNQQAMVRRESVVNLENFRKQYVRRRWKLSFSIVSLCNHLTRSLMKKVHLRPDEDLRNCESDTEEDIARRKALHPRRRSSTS
Bone morphogenetic protein receptor type-1B (Homo sapiens), sequence (O00238 whole entry): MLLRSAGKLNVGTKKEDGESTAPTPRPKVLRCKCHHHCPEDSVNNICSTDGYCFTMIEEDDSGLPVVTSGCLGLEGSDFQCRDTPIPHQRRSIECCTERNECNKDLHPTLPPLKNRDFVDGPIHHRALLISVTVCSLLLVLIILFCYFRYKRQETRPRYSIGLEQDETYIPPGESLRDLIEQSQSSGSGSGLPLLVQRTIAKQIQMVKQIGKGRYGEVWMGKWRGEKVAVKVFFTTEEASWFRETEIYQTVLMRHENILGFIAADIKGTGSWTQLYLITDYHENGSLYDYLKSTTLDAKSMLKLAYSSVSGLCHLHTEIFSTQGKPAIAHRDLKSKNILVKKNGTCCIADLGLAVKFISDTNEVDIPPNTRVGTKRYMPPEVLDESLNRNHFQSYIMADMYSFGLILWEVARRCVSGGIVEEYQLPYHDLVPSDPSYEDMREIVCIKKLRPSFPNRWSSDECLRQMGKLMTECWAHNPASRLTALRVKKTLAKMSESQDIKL

SMILES	Activity [1]	Activity [2]	Activity [3]	Activity [4]	Activity [5]	Activity [6]	Activity [7]	Activity [8]	Activity [9]	Activity [10]	Activity [11]	Activity [12]	Activity [13]	Activity [14]	Activity [15]	Activity [16]	Activity [17]	Activity [18]	Activity [19]
COc1cc2nc(C)nc(N[C@H](C)c3cccc(-c4cn[nH]c4)c3)c2cc1OC	67%	98%	100%	100%	93%	97%	82%	73%	100%	86%	90%	94%	88%	98%	84%	90%	77%	100%	86%
COc1cc2ncnc(N[C@H](C)c3cccc4ccccc34)c2cc1OC	80%	94%	100%	100%	85%	100%	100%	99%	50%	1.1%	96%	92%	97%	100%	100%	100%	86%	68%	100%

From ChEMBL document CHEMBL5678818, “Discovery of potent SOS1 inhibitors that block RAS activation via disruption of the RAS-SOS1 interaction” (Proc Natl Acad Sci U S A, 2019)
